Source: EP0808325B1, “[…] […] SERIES FOR […] GABA RECEPTOR” (priority 1994, dated 1996)

Experiments:
mice [1] = experiment: loss-of-righting reflex (anesthetic activity); type: in vivo; design: unit not given here; details: iv
Experimental: The compounds of and used in the invention can also be used for anesthetic indications at high doses. However, the preferred route of administration to induce anesthesia is intravenous (i.v.) administration. In animals, a drug's anesthetic properties is measured by the drug's ability to produce a loss-of-righting reflex. The loss-of-righting reflex is defined as the inability of an animal to right itself within 30 seconds when placed on its back. Mice were administered drug i.v. in the lateral tail vein. Following administration, mice were placed on their backs and observed for loss-of-righting reflex.

mice [2] = experiment: elevated plus-maze; type: in vivo, N.I.H. Swiss-Webster mice; details: IP
Excerpt: The theoretical basis for the elevated plus-maze test is similar to that of the light/dark transition test. As described by Pellow et al., J. Neurosci. Meth 14:149-167 (1985), the elevated plus-maze apparatus is designed to utilize the mice's natural aversion to open spaces. The apparatus consists of two open-arms and two enclosed-arms. The elevated plus-maze test allows for two measures of anxiety, the number of entries into the open-arms and the time spent on the open-arms, both expressed as a percentage of the total number of entries and time spent in/on both the open-arms and enclosed-arms.
Male N.I.H. Swiss-Webster mice (Harlan, Indianapolis, IN) weighing 15-20 g were housed four per cage in polyethylene cages with sawdust bedding. The colony room was environmentally controlled (22°C) with a 12 hr light/dark cycle (0600-1800 hr). Food and water were available ad libitum, except during testing. The experiments were run from 0700-1500 hr and groups were counterbalanced for time of day effects. Mice were only administered drug or vehicle once.
The method used was previously described (Lister, Psychopharmacol. 92:180-185 (1987)). The apparatus included two open arms perpendicular to two enclosed arms elevated 50 cm from the floor. Each arm was 50 cm long and the walls of the enclosed arms were 40 cm tall. The maze was made completely of black plexiglass. Incandescent 200 W light bulbs were above each of the open arms to produce a strong contrast between the open arms and the enclosed arms.
Ten minutes after an injection, the N.I.H. Swiss-Webster mice were placed in the center of the plus-maze facing an open arm. During the 5 min test period, the number of entries onto the open arms and the enclosed arms, and the time spent in the open arms and enclosed arms were measured. All four paws had to be within an arm for the dependent variable to be measured. Therefore, the time spent in the center of the maze is not counted, so the total time spent in the open arms and the enclosed arms may not equal 5 min. […]

GR complex = experiment: modulation of [35S]TBPS binding in rat cerebral cortex P2 homogenate; design: species or system Sprague-Dawley rats; IMAX: unit not given here; details: for IC50: concentration of compounds to inhibit 50% of control [35S]TBPS binding, 2 nM [35S]TBPS, 25°C, 90 minutes, no unit printed; for IMAX: maximum inhibition of [35S]TBPS binding, I* = Inactive
Summary of the method: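 Rat (male Sprague-Dawley) cortical P2 homogenate, 0.5 mg protein, in 50 mM Na/K phosphate pH 7.4, 200 mM NaCl, incubated 90 min at 25° C with 2 nM [35S]TBPS plus GABA and (+)bicuculline, compounds added in DMSO. Filter-bound radioactivity counted; nonspecific binding defined with […].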

[3] = test system: metrazol induced convulsions; experiment: animal or person; type: in vivo, mice; details: IP, 10 mg/kg
rats = experiment: Geller-Seifter conflict test; type: in vivo, Sprague-Dawley rats
Excerpt: This animal model of human anxiety utilizes a conditioned state of conflict in rats to ascertain the anxiolytic properties of drugs. Rats are conditioned to bar press for positive reinforcement under two schedules of behavior (Geller and Seifter, Psychopharmacologia 1:482-492 (1960)). The first includes bar pressing under a […] schedule without punishment. The second component is a fixed ratio schedule with each bar press resulting in a positive reinforcement and a punishment. The punished component produces a state of conflict within the animal. […] An anxiolytic response would increase the punished responding without affecting the unpunished responding.
Male albino Sprague-Dawley rats (Charles River Labs, Wilmington, MA) weighing 250-300 g were used for conflict experiments and were kept on a restricted diet of Purina Lab Chow food pellets with water available at all times to maintain body weight at 85% of their free-feeding young adult levels. Rats were housed individually under a 12-hour light-dark cycle with lights on from 0700-1900.
The anti-anxiety (punishment-lessening) and response depressant effects of […] and […] were measured in rats by the conflict test of Geller and Seifter (1960). In this 63-min test, hungry rats perform a lever-press response to obtain a sweetened milk reward. The reinforcement schedule consists of punishment and nonpunishment components, alternating approximately every 15 min. Rats were trained in test chambers (Coulbourn instruments) with a lever mounted in one wall, a small dipper that delivered the 0.1-mL milk reward (1 part Eagle condensed : milk 2 parts water), and a metal grid floor through which the foot-shock punishment was administered. A DEC PDP 11/73 minicomputer running SKED (State Systems) was used for programming and recording.
Rates initially learned to respond on a continuous reinforcement schedule and progressed rapidly to 30-sec, 1-min, and 2-min variable interval (VI) schedules. On the continuous reinforcement schedule, rats received milk reward following every lever press; on the VI schedules, milk rewards were available at infrequent and variable intervals, eventually at an average of once every 2 min. Four 3-min "conflict" periods were then introduced on the unpunished VI baseline; the first started after 3 min of VI performance and the others were alternated between 12-min periods of VI responding. During conflict periods, which were signalled by the presentation of a light and a tone, the continuous reinforcement schedule was again in force and each lever press delivered both a milk reward and a brief ([…]) foot-shock punishment. Shock intensity was 0.2 mA initially, and.was increased daily in increments of 0.02 mA in order to gradually suppress lever pressing to 5 responses or less per conflict period. This training took 4-6 weeks, after which stable low rates of response were observed during conflict periods and stable high rates in the nonpunishment periods. Drug-induced increases in the rate of punished responses were taken as an index of antianxiety activity, while decreases in the rate of unpunished responses were taken as an index of response depression or sedation.

[4] = 50% hpbcd, 10 minutes prior to metrazol (85 mg/kg)

SMILES: CCO[C@H]1C[C@@]2(C)[C@@H](CC[C@@H]3[C@@H]2CC[C@]2(C)[C@@H](C(C)=O)CC[C@@H]32)C[C@@H]1O [2β-Ethoxy-3α-hydroxy-5α-pregnan-20-one]
- Loss-of-Righting Reflex (mice [1]; 20% cremophor, 5 mg/kg): 100

SMILES: CC(=O)[C@H]1CC[C@H]2[C@@H]3CC[C@H]4C[C@H](O)[C@@H](F)C[C@]4(C)[C@H]3CC[C@]12C [2β-Fluoro-3α-hydroxy-5α-pregnan-20-one]
- Loss-of-Righting Reflex (mice [1]; micronizing solution, 5 mg/kg): 100

SMILES: C#C[C@@]1(O)CC[C@@]2(C)[C@H](CC[C@@H]3[C@@H]2CC[C@]2(C)[C@@H](C(=O)CO)CC[C@@H]32)C1 [3α,21-Dihydroxy-3β-ethynyl-5β-pregnan-20-one]
- % Control (mice [2]; 50% hpbcd, 10 mg/kg): 162%
- IC50 (GR complex): 216 nM
- IMAX (GR complex): 104
- % Protected [3, 4]: 18.8%
- Loss-of-Righting Reflex (mice [1]; 20% cremophor, 10 mg/kg): 100

SMILES: C[C@]12CC[C@H]3[C@@H](CC[C@@H]4C[C@@](O)(C(F)(F)F)CC[C@@H]43)[C@@H]1CC[C@@H]2C(=O)COC(=O)CCC(=O)[O-].[Na+] [3α,21-dihydroxy-3β-trifluoromethyl-19-nor-5β-pregnan-20-one, 21-hemisuccinate, sodium salt]
- % Control (mice [2]; water, 20 mg/kg): 161.1%
- IC50 (GR complex): 530 nM
- IMAX (GR complex): 101
- % Protected ([3]; water): 50%
- Geller/Seifter (% of control) (rats; po, water, 8 mg/kg): 2493.4 % of control

SMILES: CC(=O)C1=CC[C@H]2[C@@H]3CC[C@H]4C[C@](C)(O)CC[C@]4(C)[C@H]3CC[C@]12C [3α-Hydroxy-3β-methyl-5α-pregn-16-en-20-one]
- Loss-of-Righting Reflex (mice [1]; micronizing solution, 50 mg/kg): 100

SMILES: COCCC(=O)[C@H]1CC[C@H]2[C@@H]3CC[C@H]4C[C@](C)(O)CC[C@]4(C)[C@H]3CC[C@]12C [3α-Hydroxy-3β-methyl-21-methoxymethyl-5α-pregnan-20-one]
- Loss-of-Righting Reflex (mice [1]; micronizing solution, 20 mg/kg): 100

SMILES: CC(=O)[C@H]1CC[C@H]2[C@@H]3CC[C@@H]4C[C@@](O)(C(F)(F)F)CC[C@@H]4[C@H]3CC[C@]12C [3α-Hydroxy-3β-trifluoromethyl-5β-19-norpregnan-20-one]
- % Control (mice [2]; 50% hpbcd, 10 mg/kg): 173.8%
- IC50 (GR complex): 76 nM
- IMAX (GR complex): 100
- % Protected [3, 4]: 100%
- Geller/Seifter (% of control) (rats; sc, 50% hpbcd, 4 mg/kg): 1073.1 % of control

SMILES: CC(=O)[C@H]1CC[C@H]2[C@@H]3CC[C@@H]4C[C@@](O)(C(F)(F)F)CC[C@]4(C)[C@H]3CC[C@]12C [3α-Hydroxy-3β-trifluoromethyl-5β-pregnan-20-one]
- % Control (mice [2]; 50% hpbcd, 20 mg/kg): 197.6%
- IC50 (GR complex): 211 nM
- IMAX (GR complex): 98
- % Protected [3, 4]: 62.5%
- Geller/Seifter (% of control) (rats; sc, 50% hpbcd, 4 mg/kg): 663.2 % of control

SMILES: CC(=O)[C@H]1CC[C@H]2[C@@H]3CC[C@H]4C[C@H](O)CC[C@]4(C)C3=CC[C@]12C [3α-Hydroxy-5α-pregn-9-en-20-one]
- Loss-of-Righting Reflex (mice [1]; micronizing solution, 10 mg/kg): 100

SMILES: COC=C1CCC2C3CCC4CC(O)CCC4C3CCC12C (stereo not drawn) [3α-Hydroxy-17(20)(Z)-methoxytnethylene-19-nor-5α-androstane]
- Loss-of-Righting Reflex (mice [1]; micronizing solution, 5 mg/kg): 75

SMILES: C#C[C@@]1(O)CC[C@@]2(C)[C@@H](CC[C@@H]3[C@@H]2CC[C@]2(C)[C@@H](C(C)=O)CC[C@@H]32)C1 [3α-hydroxy-3β-ethynyl-5α-pregnan-20-one, 3β-Ethynyl-3α-hydroxy-5α-pregnan-20-one]
- % Control (mice [2]; 50% hpbcd, 10 mg/kg): 213%
- IC50 (GR complex): 53 nM
- IMAX (GR complex): 91
- % Protected [3, 4]: 87.5%
- Geller/Seifter (% of control) (rats; sc, 50% hpbcd, 8 mg/kg): 830.2 % of control

SMILES: CC(=O)[C@H]1CC[C@H]2[C@@H]3CC[C@H]4C[C@](C)(O)CC[C@]4(C)[C@H]3CC[C@]12C [3α-hydroxy-3β-methyl-5α-pregnan-20-one]
- % Control (mice [2]; 50% hpbcd, 5 mg/kg): 165.6%
- IC50 (GR complex): 62 nM
- IMAX (GR complex): 97
- % Protected [3, 4]: 100%
- Geller/Seifter (% of control) (rats; sc, 50% hpbcd, 4 mg/kg): 1384.6 % of control

SMILES: CC(=O)[C@H]1CC[C@H]2[C@@H]3CC[C@@H]4C[C@](C)(O)CC[C@]4(C)[C@H]3CC[C@]12C [3α-hydroxy-3β-methyl-5β-pregnan-20-one]
- IC50 (GR complex): 37 nM
- IMAX (GR complex): 98
- % Protected ([3]; micro soln.): 70%
- Loss-of-Righting Reflex (mice [1]; micronizing solution, 2.5 mg/kg): 100

SMILES: CC(=O)[C@H]1CC[C@H]2[C@@H]3CC[C@@H]4C[C@@](O)(C#CCl)CC[C@]4(C)[C@H]3CC[C@]12C [3β-(Chloroethynyl)-3α-hydroxy-5β-prognan-20-one]
- Loss-of-Righting Reflex (mice [1]; micronizing solution, 20 mg/kg): 100

SMILES: CC(=O)[C@H]1CC[C@H]2[C@@H]3CC[C@H]4C[C@@](O)(CF)CC[C@]4(C)[C@H]3CC[C@]12C [3β-Fluoromethyl-3α-hydroxy-5α-pregnan-20-one]
- % Control (mice [2]; 50% hpbcd, 20 mg/kg): 150.7%
- IC50 (GR complex): 200 nM
- IMAX (GR complex): 77
- % Protected [3, 4]: 14.3%
- Geller/Seifter (% of control) (rats; sc, 50% hpbcd, 8 mg/kg): 1005 % of control

SMILES: C=C[C@@]1(O)CC[C@@]2(C)[C@@H](CC[C@@H]3[C@@H]2CC[C@]2(C)[C@@H](C(C)=O)CC[C@@H]32)C1 [3β-ethenyl-3α-hydroxy-5α-pregnan-20-one, 3β-Ethenyl-3α-hydroxy-5α-pregnan-20-one]
- % Control (mice [2]; 50% hpbcd, 5 mg/kg): 154.3%
- IC50 (GR complex): 113 nM
- IMAX (GR complex): 88
- % Protected [3, 4]: 100%
- Geller/Seifter (% of control) (rats; po, 50% hpbcd, 12 mg/kg): 1092.3 % of control

SMILES: C#C[C@@]1(O)CC[C@@]2(C)[C@H](CC[C@@H]3[C@@H]2CC[C@]2(C)[C@@H](C(C)=O)CC[C@@H]32)C1 [3β-ethynyl-3α-hydroxy-5β-pregnan-20-one, 3β-Ethynyl-3α-hydroxy-5β-pregnan-20-one]
- % Control (mice [2]; 50% hpbcd, 1 mg/kg): 186.6%
- IC50 (GR complex): 39 nM
- IMAX (GR complex): 101
- % Protected [3, 4]: 100%
- Loss-of-Righting Reflex (mice [1]; 10% hpbcd, 30 mg/kg): 100
- Geller/Seifter (% of control) (rats; sc, 50% hpbcd, 2 mg/kg): 751.1 % of control
